Data: article PMC10099809, “Valorization of Adhatoda vasica leaves: Extraction, in vitro analyses and in silico approaches” (Frontiers in Nutrition, 2023)
≈ marks a conversion by molar mass, not a printed value.

Legend:
[1] = Hydroxyl radical scavenging assay; details: for Hydroxyl radical scavenging % inhibition: range, up to 100 μg/ml
Protocol: (§1) The anti-oxidant activity of vasicine was evaluated with ABTS [2,2′-azino-bis (3-ethylbenzothiazoline-6-sulfonic acid)] activity ([20]), ferric reducing power (FRAP) assay, DPPH radical scavenging activity, hydroxyl radical scavenging activity ([21]–[24]), and hydrogen peroxide assay ([25]).

[2] = DPPH radical scavenging activity; details: for DPPH % inhibition: at 100 μg/ml
Protocol: as §1

proteinase = test: Proteinase inhibitory activity; type: biochemical
Source text: (§2) The anti-inflammatory activity of vasicine was investigated with lipooxygenase (LOX) inhibition assay ([26]), bovine serum albumin (BSA) method ([27]), egg albumin method ([28], [29]), and protein inhibitory action ([30]).

lipooxygenase (LOX) = test: Lipooxygenase inhibition assay; type: biochemical
Source text: as §2

egg albumin = target: T1, egg albumin (Gallus gallus, UniProt P01012); test: Egg albumin method (albumin denaturation); type: biochemical; details: for Inhibition of albumin denaturation: concentration range 10 to 100 μg/ml
T1 sequence (P01012 1-386): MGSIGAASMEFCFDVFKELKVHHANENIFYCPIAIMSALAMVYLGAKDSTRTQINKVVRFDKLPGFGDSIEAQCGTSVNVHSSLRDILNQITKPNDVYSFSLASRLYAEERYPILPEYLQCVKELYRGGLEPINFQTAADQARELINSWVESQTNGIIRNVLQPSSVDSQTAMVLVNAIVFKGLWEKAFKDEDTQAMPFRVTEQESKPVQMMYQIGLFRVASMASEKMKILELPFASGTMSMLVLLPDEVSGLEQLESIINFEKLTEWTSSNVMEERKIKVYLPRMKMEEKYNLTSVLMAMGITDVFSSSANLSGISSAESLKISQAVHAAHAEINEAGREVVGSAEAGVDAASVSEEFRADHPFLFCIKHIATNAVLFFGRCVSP
Source text: as §2

[3] = Ferric reducing antioxidant power (FRAP) assay
Protocol: as §1

lung carcinoma (A545) = test: Anticancer activity, direct microscopic observation and MTT assay; type: cell-based
Protocol: (§3) The anticancer activity of vasicine for the potential treatment of lung carcinoma (A545) was evaluated in a multi-step process. Cytotoxicity of vasicine was investigated by cytotoxicity evaluation (human fibroblast cell line, C0135C) ([39], [40]), direct microscopic observation ([41]), and MTT assay ([42]).

[4] = tested on: serum alkaline phosphatase; design: method as in Srinivasarao et al. ([60]); details: Swiss albino mice treated with vasicine; ref Srinivasarao et al. ([60]); cited from earlier work
α-amylase = α-amylase inhibition assay; type: biochemical
Protocol: (§4) The antidiabetic activity of vasicine was evaluated with in vitro enzymatic assays using α-amylase and α-glucosidase ([31]–[36]). The non-enzymatic glycosylation of hemoglobin assay was also carried out ([37]).

[5] = target: bovine serum albumin (BSA) (Bos taurus, UniProt P02769); test: BSA method (albumin denaturation); type: biochemical
Chain of bovine serum albumin (BSA) (P02769 25-607): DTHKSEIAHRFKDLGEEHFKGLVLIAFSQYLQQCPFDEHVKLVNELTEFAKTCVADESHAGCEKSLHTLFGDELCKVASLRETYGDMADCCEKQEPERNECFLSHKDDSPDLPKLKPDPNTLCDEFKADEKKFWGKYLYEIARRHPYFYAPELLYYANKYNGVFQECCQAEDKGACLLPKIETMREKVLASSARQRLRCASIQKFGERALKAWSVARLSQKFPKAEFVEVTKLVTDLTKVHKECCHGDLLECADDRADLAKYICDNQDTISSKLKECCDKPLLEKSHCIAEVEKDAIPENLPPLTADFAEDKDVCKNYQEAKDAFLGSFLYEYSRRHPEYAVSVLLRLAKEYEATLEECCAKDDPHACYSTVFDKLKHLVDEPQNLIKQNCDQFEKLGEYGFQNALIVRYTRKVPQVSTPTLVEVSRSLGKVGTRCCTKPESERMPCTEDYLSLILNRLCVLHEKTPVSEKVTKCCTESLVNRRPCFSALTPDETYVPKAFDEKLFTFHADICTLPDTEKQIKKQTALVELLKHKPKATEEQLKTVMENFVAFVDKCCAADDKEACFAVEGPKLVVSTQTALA
Source text: as §2

[6] = tested on: human fibroblast cell line, C0135C; test: Cytotoxicity evaluation, MTT assay; type: cell-based; details: cell viability
Protocol: as §3

ABTS scavenging activity = test: ABTS scavenging activity
Protocol: as §1

Escherichia coli = test: Antibacterial colony forming units (CFU) assay; type: cell-based; details: E. coli; increasing concentration of purified vasicine
Protocol: (§5) Antibacterial assay was carried outby colony forming units (CFU) assay using anaerobic and facultative oral bacteria ([17]). Two different bacterial strains (Escherichia coli and Bacillus badius) were collected from NCCS, Pune. […] The broth were kept in incubator at 37°C for 24 h. Two strains of Bacteria were grown in MH broth to an OD600nm of 0.5. 2 μLaliquot of the bacteria and 5 ml of fresh MH broth (contains various concentration of vasicine) was added ([19]). The log10 reduction in CFU/ml was determined.

Bacillus badius = test: Antibacterial colony forming units (CFU) assay; type: cell-based; details: increasing concentration of purified vasicine
Protocol: as §5

hemoglobin = hemoglobin (Homo sapiens, UniProt P68871+P69905); test: Non-enzymatic glycosylation of hemoglobin assay; type: biochemical; details: incubation of hemoglobin with glucose for 72 h; in comparison to the standard drug
Chain of hemoglobin (P69905 2-142 limits assumed): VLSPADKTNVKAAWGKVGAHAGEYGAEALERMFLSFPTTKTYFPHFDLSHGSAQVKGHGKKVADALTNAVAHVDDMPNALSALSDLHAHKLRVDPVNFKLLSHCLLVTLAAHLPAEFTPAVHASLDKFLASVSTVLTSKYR
Chain of hemoglobin (P68871 2-147 limits assumed): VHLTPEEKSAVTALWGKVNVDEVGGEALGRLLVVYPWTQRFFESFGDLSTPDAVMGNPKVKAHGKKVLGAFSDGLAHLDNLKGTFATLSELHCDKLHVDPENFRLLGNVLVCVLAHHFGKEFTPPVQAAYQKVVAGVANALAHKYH
Protocol: as §4

Hydrogen peroxide assay = test: Hydrogen peroxide assay
Protocol: as §1

O=C1O[C@H]([C@@H](O)CO)C(O)=C1O [ascorbic acid, reference compound]
Hydroxyl radical scavenging % inhibition [1]: 15–86%
DPPH % inhibition [2]: 96%

CC(=O)Oc1ccccc1C(=O)O [aspirin, reference compound]
Proteinase % inhibition (proteinase; standard): 79%

O=C(O)Cc1ccccc1Nc1c(Cl)cccc1Cl [diclofenac sodium, reference compound]
Lipooxygenase % inhibition (lipooxygenase (LOX); at 100 μg/ml): 82%
Inhibition of albumin denaturation (egg albumin): 89%

O[C@H]1CCN2Cc3ccccc3N=C12 [vasicine]
Hydroxyl radical scavenging IC50 [1]: 22 µg/mL
Hydroxyl radical scavenging % inhibition [1]: 12–69%
FRAP IC50 [3]: 15 µg/mL
FRAP % inhibition ([3]; at 100 μg/ml): 62%
inhibition at 100 µg/mL (lung carcinoma (A545); A545, read-out: Growth inhibition of lung cancer cell line): 30.1%
Inhibition of cell growth, lung cancer cell line (lung carcinoma (A545); discussion statement, concentration not given): More than 50%
Serum alkaline phosphatase [4]: increase in serum alkaline phosphatase
α-amylase inhibition IC50 (α-amylase): 47.6 µg/mL
IC50 [5]: 275 µM
BSA method maximum percentage of inhibition ([5]; maximum): 82%
Proteinase inhibitory IC50 (proteinase): 76 µg/mL
Lipooxygenase IC50 (lipooxygenase (LOX)): 76 µg/mL
Lipooxygenase maximum percentage inhibition (lipooxygenase (LOX); maximum): 83%
IC50 [6]: 82.5 µg/mL (≈ 438 µM)
ABTS scavenging IC50 (ABTS scavenging activity): 11.5 µg/mL
Number of colonies (CFU assay) (Escherichia coli): number of colonies reduced
Number of colonies (CFU assay) (Bacillus badius): number of colonies reduced
DPPH radical scavenging IC50 [2]: 18.2 µg/mL
DPPH % inhibition [2]: 81%
IC50 (egg albumin): 283 µM
Inhibition of albumin denaturation (egg albumin): 81%
Inhibition of hemoglobin glycosylation (hemoglobin): substantially inhibits hemoglobin glycosylation
Hydrogen peroxide assay IC50 (Hydrogen peroxide assay): 27.8 µg/mL
Inhibitory activity against hydrogen peroxide (Hydrogen peroxide assay; 10–100 μg): 9–59%
